# Test results reported in the supplement of paper PMC6045584.
# ± gives the standard deviation of the averaged measurements.
# Compound: C#Cc1cccc(Nc2ncnc3cc(OCCOC)c(OCCOC)cc23)c1 [ERLOTINIB]
# Experiment: surviving fraction relative to DMSO-only wells; higher = less growth inhibition
# Details: 1 nM; exposure time: 5 days
# In short: (§1)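 Log-phase tumour cell lines were seeded at 250–500 cells per well in 384-well plates. After 24 hours they were exposed continuously for five days to inhibitors at 0.5, 1, 5, 10, 50, 100, 500 and 1000 nM. Viability was read by CellTiter-Glo luminescence after 10 minutes at room temperature, and surviving fraction is luminescence normalised to the median of DMSO-only wells. Each line was screened three times and kept only if replicate Pearson r >0.7 and median Z' >0.3.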
row,Test System,surviving fraction
1,HCC1395 BREAST,0.992 ± 0.02

# Same assay, conditions: 5 nM; exposure time: 5 days
row,Test System,surviving fraction
1,C33A CERVIX,1.06 ± 0.03
2,CAL72 BONE,1.05 ± 0.1
3,G292 BONE,1.03 ± 0.051
4,HCC1395 BREAST,1.33 ± 0.036
5,LNCAP PROSTATE,0.956 ± 0.032
6,SCC003 HEADNECK,1.13 ± 0.045

# Same assay, conditions: 10 nM; exposure time: 5 days
row,Test System,surviving fraction
1,C33A CERVIX,1.14 ± 0.019
2,G292 BONE,1.06 ± 0.018
3,HCC1395 BREAST,1.18 ± 0.14
4,HUO3N1 BONE,1.117 ± 0.0084
5,LNCAP PROSTATE,0.892 ± 0.053
6,SCC003 HEADNECK,1.06 ± 0.11

# Same assay, conditions: 50 nM; exposure time: 5 days
row,Test System,surviving fraction
1,C33A CERVIX,1.06 ± 0.077
2,G292 BONE,1.05 ± 0.038
3,HUO3N1 BONE,1.13 ± 0.025
4,LNCAP PROSTATE,0.947 ± 0.1
5,SCC003 HEADNECK,0.997 ± 0.091

# Same assay, conditions: 100 nM; exposure time: 5 days
row,Test System,surviving fraction
1,C33A CERVIX,1.08 ± 0.029
2,CAL72 BONE,1.1 ± 0.083
3,G292 BONE,1.07 ± 0.033
4,HCC1395 BREAST,1.28 ± 0.027
5,HUO3N1 BONE,1.1 ± 0.018
6,LNCAP PROSTATE,1.02 ± 0.054
7,SCC003 HEADNECK,1.04 ± 0.051

# Same assay, conditions: 500 nM; exposure time: 5 days
row,Test System,surviving fraction
1,C33A CERVIX,0.819 ± 0.052
2,CAL72 BONE,1.06 ± 0.084
3,G292 BONE,0.979 ± 0.019
4,HCC1395 BREAST,1.14 ± 0.042
5,HUO3N1 BONE,1.02 ± 0.025
6,SCC003 HEADNECK,0.702 ± 0.024

# Same assay, conditions: 1000 nM; exposure time: 5 days
row,Test System,surviving fraction
1,C33A CERVIX,0.655 ± 0.031
2,CAL72 BONE,1.07 ± 0.058
3,G292 BONE,1.07 ± 0.092
4,HCC1395 BREAST,1.19 ± 0.051
5,HUO3N1 BONE,1.02 ± 0.038
6,LNCAP PROSTATE,0.967 ± 0.028
7,SCC003 HEADNECK,0.552 ± 0.038

# Compound: COc1cc([C@@H]2c3cc4c(cc3[C@@H](O[C@@H]3O[C@@H]5CO[C@@H](C)O[C@H]5[C@H](O)[C@H]3O)[C@H]3COC(=O)[C@H]23)OCO4)cc(OC)c1O [ETOPOSIDE]
# Experiment: as above
# Details: 0.5 nM; exposure time: 5 days
# In short: as §1
row,Test System,surviving fraction
1,C33A CERVIX,0.794 ± 0.11
2,CAL72 BONE,1.05 ± 0.026
3,G292 BONE,0.964 ± 0.035
4,HCC1395 BREAST,0.983 ± 0.081
5,HUO3N1 BONE,0.956 ± 0.017
6,LNCAP PROSTATE,0.86 ± 0.18
7,SCC003 HEADNECK,1.04 ± 0.092

# Same assay, conditions: 1 nM; exposure time: 5 days
row,Test System,surviving fraction
1,C33A CERVIX,0.967 ± 0.064
2,CAL72 BONE,1.05 ± 0.037
3,G292 BONE,0.976 ± 0.041
4,HCC1395 BREAST,0.994 ± 0.1
5,HUO3N1 BONE,0.936 ± 0.05
6,LNCAP PROSTATE,0.951 ± 0.078
7,SCC003 HEADNECK,1.05 ± 0.13

# Same assay, conditions: 5 nM; exposure time: 5 days
row,Test System,surviving fraction
1,C33A CERVIX,0.918 ± 0.016
2,CAL72 BONE,1.06 ± 0.048
3,G292 BONE,1 ± 0.087
4,HCC1395 BREAST,1.02 ± 0.12
5,HUO3N1 BONE,0.982 ± 0.06
6,LNCAP PROSTATE,0.868 ± 0.13
7,SCC003 HEADNECK,1.11 ± 0.069

# Same assay, conditions: 10 nM; exposure time: 5 days
row,Test System,surviving fraction
1,C33A CERVIX,1.05 ± 0.071
2,CAL72 BONE,1.05 ± 0.05
3,G292 BONE,0.978 ± 0.06
4,HCC1395 BREAST,1 ± 0.12
5,HUO3N1 BONE,1.01 ± 0.042
6,LNCAP PROSTATE,0.94 ± 0.058
7,SCC003 HEADNECK,1.07 ± 0.051

# Same assay, conditions: 50 nM; exposure time: 5 days
row,Test System,surviving fraction
1,C33A CERVIX,0.923 ± 0.045
2,CAL72 BONE,1.07 ± 0.051
3,G292 BONE,0.942 ± 0.02
4,HCC1395 BREAST,1.06 ± 0.14
5,HUO3N1 BONE,1.01 ± 0.019
6,LNCAP PROSTATE,0.9023 ± 0.0057
7,SCC003 HEADNECK,1.1 ± 0.063

# Same assay, conditions: 100 nM; exposure time: 5 days
row,Test System,surviving fraction
1,C33A CERVIX,0.726 ± 0.024
2,CAL72 BONE,1.07 ± 0.039
3,G292 BONE,0.796 ± 0.014
4,HCC1395 BREAST,1.04 ± 0.056
5,HUO3N1 BONE,0.96 ± 0.057
6,LNCAP PROSTATE,0.77 ± 0.051
7,SCC003 HEADNECK,1.08 ± 0.068

# Same assay, conditions: 500 nM; exposure time: 5 days
row,Test System,surviving fraction
1,C33A CERVIX,0.251 ± 0.027
2,CAL72 BONE,0.684 ± 0.029
3,G292 BONE,0.437 ± 0.019
4,HCC1395 BREAST,0.937 ± 0.12
5,HUO3N1 BONE,0.519 ± 0.01
6,LNCAP PROSTATE,0.438 ± 0.046
7,SCC003 HEADNECK,0.849 ± 0.15

# Same assay, conditions: 1000 nM; exposure time: 5 days
row,Test System,surviving fraction
1,C33A CERVIX,0.155 ± 0.01
2,CAL72 BONE,0.358 ± 0.03
3,G292 BONE,0.352 ± 0.012
4,HCC1395 BREAST,0.926 ± 0.13
5,HUO3N1 BONE,0.376 ± 0.012
6,LNCAP PROSTATE,0.301 ± 0.025
7,SCC003 HEADNECK,0.604 ± 0.041
